Results taken from patent US20260193170A1 (University of Copenhagen, priority 2022, published 2026).

target: T1, human Keap1 Kelch domain (Homo sapiens, UniProt Q14145); assay: Fluorescence polarization (FP) competition assay, Cy5-Nrf2 peptide probe; format: binding; details: heterologous competition FP; Keap1 Kelch 14 nM, Cy5-Nrf2 probe 3 nM, 4% DMSO; mean ± SEM
T1 construct: human Keap1 Kelch domain (residue 321-609, UniProt Q14145); made in house; host or cells: Escherichia coli BL21 (DE3) pLysS, pRSET A vector
T1 sequence (Q14145 321-609): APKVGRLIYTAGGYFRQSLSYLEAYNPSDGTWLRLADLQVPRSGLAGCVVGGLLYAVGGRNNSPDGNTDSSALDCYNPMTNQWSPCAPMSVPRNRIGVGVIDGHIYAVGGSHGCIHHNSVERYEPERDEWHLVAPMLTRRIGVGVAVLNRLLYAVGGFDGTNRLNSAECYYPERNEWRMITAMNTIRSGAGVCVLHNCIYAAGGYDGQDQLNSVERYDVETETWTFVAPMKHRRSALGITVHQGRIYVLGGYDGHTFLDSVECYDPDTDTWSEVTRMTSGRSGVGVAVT
Method: The binding affinities between the fluorescent peptide probe Cy5-Nrf2 (SEQ: Cy5-[…]-NH2) and the human Keap1 Kelch domain were determined as Kd values by saturation binding experiments, where increasing concentrations of Keap1 (0-300 nM) were added to a fixed concentration of peptide probe (3 nM). The assay was performed in a 1× HBSTET buffer (10 mM HEPES, 150 mM NaCl, 0.005% Tween20, 3 mM ethylenediaminetetraacetic acid (EDTA), 1 mM TCEP, pH=7.4) using black flat-bottom 384-well plates (Corning Life Sciences, NY), a volume of 30 μL/well, and a final DMSO concentration of 4% or 8%. The assay plate was spun down to ascertain proper mixing and removal of potential air bubbles and incubated for 10-15 min at room temperature before measuring the FP levels on a Safire2 plate reader (Tecan, Mannedorf, Switzerland). The g-factor was adjusted at each experiment so that a series of three blank wells containing probe but no Keap1 Kelch defined the baseline FP value. The Cy5-Nrf2 probe was measured at excitation/emission values of 635:670 nm. The FP values were fitted to the one-site specific binding equation: Y=Bmax×X/(Kd+X), with Bmax being the maximal FP value, X the Keap1 Kelch concentration, and Y the variable FP values. The Kd values were derived from the resulting binding saturation curve as being equal to the Keap1 Kelch concentration, where the curve is half-saturated.
The affinities between nonfluorescent small molecule Keap1 inhibitors and Keap1 Kelch were determined as Ki values in a heterologous competition FP binding assay. This was done by adding increasing concentration of test compound (2-fold serial dilutions, 12 concentrations tested per inhibition curve as duplicates) to a fixed concentration of Keap1 Kelch (14 nM) and the Cy5-Nrf2 peptide probe (3 nM) in the same HBSTET buffer and conditions as described above (final DMSO concentrations were 4%). FP values were fitted to the equation Y=Bottom+(Top−Bottom)/[1+(10^HillSlope×(log IC50−X))], where X is the logarithmic value of compound concentration. Hereby, the IC50 value was obtained, which together with the […] value and probe and Keap1 Kelch concentrations was used to calculate the theoretical competitive inhibition constant, the Ki value. 43 Ki values are shown as mean±SEM (standard error of mean) if based on two or more individual measurements.

First: O=C(O)CCc1ccc2ccc(OCC(=O)NC3CCCCC3)cc2c1 [1a, 3-(7-(2-(Cyclohexylamino)-2-oxoethoxy)naphthalen-2-yl)propanoic acid]
Second: O=C(O)CCc1ccc2ccc(OCC(=O)NC3CCCCCC3)cc2c1 [1d, 3-(7-(2-(Cycloheptylamino)-2-oxoethoxy)naphthalen-2-yl)propanoic acid]
The Ki of the first is 2.3-fold higher: 14 ± 0.8 µM for the first, 6 ± 0.3 µM for the second.

First: O=C(O)CCc1ccc2ccc(OCC(=O)NC3CCOCC3)cc2c1 [1b, 3-(7-(2-Oxo-2-((tetrahydro-2H-pyran-4-yl)amino)ethoxy)naphthalen-2-yl)propanoic acid]
Second: O=C(O)CCc1ccc2ccc(OCC(=O)NN3CCOCC3)cc2c1 [1c, 3-(7-(2-Morpholinoamino-2-oxoethoxy)naphthalen-2-yl)propanoic acid]
The Ki of the first is 7.1-fold lower: 38 ± 3 µM for the first, 268 ± 29 µM for the second.

Going from COc1ccc(NC(=O)COc2ccc3ccc(CCC(=O)O)cc3c2)cc1 [1e, 3-(7-(2-((4-Methoxyphenyl)amino)-2-oxoethoxy)naphthalen-2-yl)propanoic acid] to O=C(O)CCc1ccc2ccc(OCC(=O)Nc3ccccc3)cc2c1 [1h, 3-(7-(2-oxo-2-(phenylamino)ethoxy)naphthalen-2-yl)propanoic acid], the Ki falls from 75 ± 10 µM to 7.8 ± 0.1 µM (9.6-fold). The second binds more tightly here.

Going from Cc1cc(C)c(NC(=O)COc2ccc3ccc(CCC(=O)O)cc3c2)c(C)c1 [1f, 3-(7-(2-(Mesitylamino)-2-oxoethoxy)naphthalen-2-yl)propanoic acid] to Cc1cc(C)c(C)c(NC(=O)COc2ccc3ccc(CCC(=O)O)cc3c2)c1C [1g, 3-(7-(2-Oxo-2-((2,3,5,6-tetramethylphenyl)amino)ethoxy)naphthalen-2-yl)propanoic acid], the Ki rises from 22 ± 0.8 µM to 196 ± 24 µM (8.9-fold).

Going from O=C(O)CC(c1ccccc1)c1ccc2ccc(OCC(=O)NC3CCCCCC3)cc2c1 (centres unmarked) [2a, 3-(7-(2-(Cycloheptylamino)-2-oxoethoxy)naphthalen-2-yl)-3-phenylpropanoic acid] to O=C(O)CC(c1cccc(O)c1)c1ccc2ccc(OCC(=O)NC3CCCCCC3)cc2c1 (centres unmarked) [2g, 3-(7-(2-(Cycloheptylamino)-2-oxoethoxy)naphthalen-2-yl)-3-(3-hydroxyphenyl)propanoic acid], the Ki falls from 1.1 ± 0.1 µM to 0.203 ± 0.03 µM (5.4-fold). The second binds more tightly here.

Compared with O=C(O)CC(c1ccc(O)cc1)c1ccc2ccc(OCC(=O)NC3CCCCCC3)cc2c1 (centres unmarked) [2b, 3-(7-(2-(Cycloheptylamino)-2-oxoethoxy)naphthalen-2-yl)-3-(4-hydroxyphenyl)propanoic acid], O=C(O)CC(c1ccc(Cl)cc1)c1ccc2ccc(OCC(=O)NC3CCCCCC3)cc2c1 (centres unmarked) [2c, 3-(4-Chlorophenyl)-3-(7-(2-(cycloheptylamino)-2-oxoethoxy)naphthalen-2-yl)propanoic acid] is 1.6-fold higher in Ki: 0.181 ± 0.02 µM for the first, 0.294 ± 0.03 µM for the second. The first binds more tightly here.

COc1ccc(C(CC(=O)O)c2ccc3ccc(OCC(=O)NC4CCCCCC4)cc3c2)cc1 (centres unmarked) [2d, 3-(7-(2-(Cycloheptylamino)-2-oxoethoxy)naphthalen-2-yl)-3-(4-methoxyphenyl)propanoic acid] and CCOc1ccc(C(CC(=O)O)c2ccc3ccc(OCC(=O)NC4CCCCCC4)cc3c2)cc1 (centres unmarked) [2e, 3-(7-(2-(Cycloheptylamino)-2-oxoethoxy)naphthalen-2-yl)-3-(4-ethoxyphenyl)propanoic acid] are within error of each other in Ki: 0.032 ± 0.03 µM for the first, 0.041 ± 0.005 µM for the second.

Compared with CC(C)Oc1ccc(C(CC(=O)O)c2ccc3ccc(OCC(=O)NC4CCCCCC4)cc3c2)cc1 (centres unmarked) [2f, 3-(7-(2-(Cycloheptylamino)-2-oxoethoxy)naphthalen-2-yl)-3-(4-isopropoxyphenyl)propanoic acid], COc1cccc(C(CC(=O)O)c2ccc3ccc(OCC(=O)NC4CCCCCC4)cc3c2)c1 (centres unmarked) [2h, 3-(7-(2-(Cycloheptylamino)-2-oxoethoxy)naphthalen-2-yl)-3-(3-methoxyphenyl)propanoic acid] is 2.8-fold higher in Ki: 0.101 ± 0.005 µM for the first, 0.284 ± 0.03 µM for the second. The first binds more tightly here.

With O=C(O)CC(c1cccc(Cl)c1)c1ccc2ccc(OCC(=O)NC3CCCCCC3)cc2c1 (centres unmarked) [2i, 3-(3-Chlorophenyl)-3-(7-(2-(cycloheptylamino)-2-oxoethoxy)naphthalen-2-yl)propanoic acid] the Ki was 0.054 ± 0.006 µM.
